How the values were obtained:
[1] = molecular target: T1, ICE (Homo sapiens, UniProt P29466); experiment: ICE digestion of α-synuclein in vitro, SDS-PAGE and western blot with anti-synuclein antibody; format: biochemical
T1 sequence (P29466 120-297 limits assumed): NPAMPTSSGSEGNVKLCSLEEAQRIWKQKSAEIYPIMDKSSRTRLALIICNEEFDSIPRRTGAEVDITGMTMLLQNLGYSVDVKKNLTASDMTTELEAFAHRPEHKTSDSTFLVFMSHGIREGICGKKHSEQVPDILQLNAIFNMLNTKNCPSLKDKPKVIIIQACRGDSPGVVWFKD
T1 sequence (P29466 317-404 limits assumed): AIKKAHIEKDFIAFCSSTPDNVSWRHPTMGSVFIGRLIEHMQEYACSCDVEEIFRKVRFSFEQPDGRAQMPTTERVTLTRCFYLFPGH
Experimental: Here, a 60 ul reaction mixture consisting of 21 μg of synuclein, 10 μg ICE in 100 mM HEPES, pH 7.4, 0.1% OG, 10% glycerol, 150 mM NaCl, with or without 20 μM inhibitor was incubated at 37° C. for 2 hours. 20 μl were withdrawn from the reaction for SDS-PAGE followed by western blotting with anti-synuclein antibody (FIG. 6).

[2] = Blood-brain barrier penetration in animals, preliminary tests; format: in vivo
From the text: The present example describes an approach for assessing is the ability of, inter alia, the two compounds referenced above (i.e., VX-765 and NCGC00185682) to cross the blood brain-barrier (BBB). […] In view of the fact that studies of VX-765 as a potential epilepsy therapeutic are currently underway at Vertex, it is hypothesized that either BBB penetration in humans is better or that the amount of compound in the CNS that is needed to achieve the desired effect being measured in the studies is small.

[3] = test system: M17 cells overexpressing alpha-synuclein; experiment: LIVE/DEAD cell viability assay, rescue from alpha-synuclein-induced toxicity; format: cell-based, human; settings: FIG. 10
From the text: (§1) Humans have 28 calpain and caspase isozymes—a large but not impossible number to test. RNAi was used to knock down each of these in turn in a neuronal cell culture model of PD. It is a neuroblastoma cell line (BE(2)-M17) carrying a wild-type α-synuclein overexpressing vector. BE(2)-M17 is a clone of the SK-N-BE(2) cell line that was established in November of 1972 from a bone marrow biopsy taken from a child with neuroblastoma. Synuclein on its own is not toxic to these cells, but it is toxic when combined with an oxidative stress agent such as rotenone or menadione. Greater than 90% reduction of mRNA levels for each of the 29 protease genes was routinely achieved, and greater than 50% reduction in protein levels (typically, about 70% reduction) was routinely achieved.
A cell viability assay was performed using LIVE/DEAD (molecular probes) assay according to the manufacture instructions. As summarized in FIG. 10, both RNAi knockdown of caspase-1/ICE and treatment with the caspase-1/ICE inhibitor block synuclein fragment formation in nerve cells and should inhibit synuclein aggregation in neuronal cells derived from one or more mouse models of PD.

[4] = test system: M17 cells overexpressing α-synuclein; experiment: M17 cell viability in the presence of menadione (α-synuclein overexpression); format: cell-based, human; settings: low concentrations; FIG. 8
From the text: as §1

[5] = test system: M17 overexpressing α-synuclein; experiment: α-synuclein fragmentation in M17 cells, western blot with anti-synuclein antibody; format: cell-based, human; settings: 12 μM and 14 μM in 1% DMSO; FIG. 9
Experimental: In this set of experiments, M17 overexpressing α-synuclein was grown in Optimem in presence or absence of menadione to confluence. Cells were then scraped and lysed by sonnication for SDS-PAGE followed by western blotting with anti-synuclein antibody.

[6] = test system: M17 cells carrying empty pcDNA3 vector; experiment: M17 cell viability in the presence of menadione (empty vector); format: cell-based, human; settings: low concentrations; FIG. 8

Row | Compound | ICE-generated α-synuclein fragment below 17 kD (western blot) ([1]; 20 μM inhibitor, 10 μg ICE, 37° C., 2 hours) | block of caspase-1 cleavage of alpha-synuclein ([1]; dose-dependent, FIG. 6) | BBB penetration [2] | rescue from alpha-synuclein-induced toxicity (cell viability) [3] | toxicity to M17 cells overexpressing α-synuclein [4] | fragmentation of α-synuclein (smaller fragment below 17 kD) [5] | toxicity to M17 cells carrying empty pcDNA3 vector [6]
1 | CC(C)(C)[C@H](NC(=O)c1ccc(N)c(Cl)c1)C(=O)N1CCC[C@H]1C(=O)N[C@H](C#N)CC(=O)O [NCGC00185682] | diminished | completely blocks | low |  |  |  | 
2 | CCO[C@@H]1OC(=O)C[C@@H]1NC(=O)[C@@H]1CCCN1C(=O)[C@@H](NC(=O)c1ccc(N)c(Cl)c1)C(C)(C)C [VX-765] |  |  | low | rescued |  |  | 
3 | CC1=CC(=O)c2ccccc2C1=O [menadione] |  |  |  |  | toxic | induced fragmentation of α-synuclein | not toxic

Reference: patent US9116157B2, “Ice-cleaved alpha-synuclein as a biomarker” (Brandeis University, priority 2010, dated 2015)
